Several values for one entry are separate records, joined by “and”; a condition that tells them apart may be missing. Equal entries are not always repeated.
Columns and labels:
FAS = experiment: Short-term Paigen-diet NASH mouse model: hepatic FAS gene expression (RT-qPCR); assay type: in vivo; conditions: FAS relative expression to vehicle group, 21 days
Procedure: To investigate whether Compound #37 prevents the development of pathology associated with NASH and steatosis in an acute exploratory disease model, a study was conducted using a diet-induced acute liver steatosis model in mice. As described below, in this study, C57BL/6J mice were initiated on the Paigen diet and simultaneously treated with Compound #37 (5, 20, and 40 mg/kg/day) or vehicle control (20% HPβCD 10 mL/kg/day) by oral gavage for 21 days.
After acclimation, 8-week old male C57Bl/6J mice (Charles River) weighing about 25 g were randomized in 4 groups according their body weight and treated once daily around noon by oral gavage with vehicle, or Compound #37 at various for 21 days as follows: Group 1: vehicle-20% (2-hydroxypropyl)-β-cyclodextrin (HP-β-CD) (n=10); Group 2: Compound #37, 5 mg/kg (n=10) Group 3: Compound #37, 20 mg/kg (n=10) Group 4: Compound #37, 40 mg/kg (n=10). During the treatment period, body weight and food intake (measured over 24h) were measured 3 times per week and once a week, respectively. During the acclimation, all mice were fed a standard diet (Special Diets Services RM1 (E), product no. 801492) and tap water ad libitum. After the acclimation period, mice were fed until the end of the experiment with a 60% high fat Paigen diet (60 kcal % fat, 1.25% cholesterol, and 0.5% cholate; D11061901, Research Diet) and tap water ad libitum.
(§1) Gene expression analysis. Hepatic expression levels of genes involved in lipid metabolism (FAS, SREBP1, ACC1, SCD1), cholesterol metabolism (HMG-CoAR, LDLR), SREBP proteolysis (SCAP, INSIG1), ER stress (PERK), oxidative stress (NRF2), inflammation (MCP-1), and fibrosis (collagen 1α1) were quantified by RTqPCR. Expression level was normalized to 18S gene expression and relative expression to vehicle group was calculated with the […] method.

HMGCoA = experiment: DIN mouse model: hepatic HMGCOA gene expression; assay type: in vivo; conditions: liver, 20 mg/kg group
Procedure: as §1
Male C57Bl/6J mice (8 weeks old) were housed in enriched ventilated cages (31×12.5×12.7 cm) throughout the experimental phase. Animals' cages litters were changed at least once a week. Animal were housed 5 per cage on inverted 12-hour light cycle (at 09:00 am lights off), 22±2° C. and 55±10% relative humidity. The acclimation period was 20 days. During the acclimation period, all mice were fed a standard diet (RM1 (E) 801492, SDS) and tap water ad libitum. After the acclimation period, mice were fed with the DIN diet (60% fat, cholesterol enriched) and fructose-enriched tap water ad libitum until the end of the experiment.
At 6 weeks of diet, mice were 4-hour fasted (09:00 am to 1:00 pm) and blood (150 μl/EDTA) was collected at 01:00 pm by retro-orbital bleeding under isoflurane anesthesia. Mice were then allocated in 2 homogenous groups (n=12/group) according to their plasma levels of ALT (average levels: 685U/L), AST (average levels: 627U/L) and HOMA-IR index (average value: 4.7), into 2 homogenous groups (see values at day 0 in Tables 15A and 15B ALT/AST and Tables 16A and 16B for HOMA-IR). Mice were then treated once daily by oral gavage with vehicle (Group 1) or Compound #37 at 20 mg/kg (Group 2) for 70 days.
Hepatic expression levels of genes involved in lipid (FAS, SREBP1, ACC1, SCD1), cholesterol metabolism (HMG-CoAR, LDLR), in SREBP proteolysis (SCAP, INSIG1), in ER stress (PERK), oxidative stress (NRF2), and inflammation (MCP-1) were not changed. However, expression of collagen 1α1, involved in liver fibrosis, was reduced by 66% in mice treated with Compound #37 (p<0.05 vs. vehicle).

[1] = individual animals, vs vehicle mean, 20 mg/kg

Structure (SMILES): CC(C)Cc1cc(-c2nc(-c3ccc(NS(=O)(=O)C(F)(F)F)cc3Cl)cs2)ccn1 [Compound 37, N-(3-chloro-4-(2-(2-isobutylpyridin-4-yl)thiazol-4-yl)phenyl)-1,1,1-trifluoromethanesulfonamide]
- 2DDct (FAS; 5 mg/kg, group mean): 1.12
- 2DDct (FAS; 5 mg/kg, individual animals, 5 mg/kg): 2.2 and 1.54 and 1.55 and 2.34 and 0.68 and 0.39 and 0.91 and 0.65 and 0.33 and 0.59
- 2DDct (FAS; 20 mg/kg, group mean): 1.18
- 2DDct (FAS; 20 mg/kg, individual animals, 20 mg/kg): 1.48 and 0.56 and 0.63 and 1.65 and 0.9 and 1.88
- HMGCOA Dct (HMGCoA; individual animals, normalised to 18S, 20 mg/kg): 12.8 and 12.14 and 13.78 and 12.65 and 13.57 and 12.83 and 13.03 and 12.86 and 14.49 and 14.63 and 12.37
- HMGCOA 2^DDct (HMGCoA; [1]): 1.34 and 2.12 and 0.68 and 1.49 and 0.79 and 1.31 and 1.14 and 1.28 and 0.41 and 0.38 and 1.8
- HMGCOA DDct (HMGCoA; [1]): −0.42 and −1.08 and 0.56 and −0.57 and 0.35 and −0.39 and −0.19 and −0.36 and 1.27 and 1.41 and −0.85
- HMGCoA (Ct) (HMGCoA; individual animals, 20 mg/kg): 25.35 and 24.69 and 26.62 and 25.08 and 25.92 and 25.42 and 24.76 and 25.37 and 25.99 and 26.18 and 24.72
- HMGCOA 2^DDct (HMGCoA; mean, n 11): 1.16
- HMGCOA DDct (HMGCoA; mean, n 11): −0.03
- HMGCOA Dct (HMGCoA; mean, n 11): 13.2
- HMGCoA (Ct) (HMGCoA; mean, n 11): 25.5
